Results from patent US9243029B2, “Crystalline oxidized glutathione and production method therefor” (Kyowa Hakko Bio Co., Ltd., priority 2010, dated 2016).

Assay: Hygroscopic property (preservation stability) at 23° C., ambient pressure, humidity 70%
Type: physicochemical
Conditions: humidity of 70%
Source text: Hereinafter, the preservation stability (hygroscopic property) of the crystal of oxidized glutathione according to the present invention will be described in detail with reference to Test Example.

oxidized glutathione [Reference Example 1]
Hygroscopic property (moisture absorption / change in water content): markedly absorbed moisture
Time until deliquesced: 2 days
